Assays:
[1] = Lipid maldigestion or malabsorption rat model (XENICAL-induced): EPA level in red blood cells and tissue after feeding EPA glycerides or fish oil; assay type: in vivo; settings: for level of EPA incorporated in red blood cells: rats given XENICAL, day 7 data (FIG. 3)
Method: The concept was tested in a lipid maldigestion or malabsorption rat model. The maldigestion or malabsorption condition was obtained using XENICAL® (ORLISTAT, tetrahydrolipstatin), a pancreatic and gastric lipases inhibitor. Rats were fed during 21 days with long-chain polyunsaturated fatty acid (LC-PUFA) supplements containing mainly eicosapentaenoic (EPA) acid. Fish oil was used as a source of triacylglycerols, and different EPA glycerides were evaluated: Vanillin acetal of 2-EPA (from Stepan Lipid Nutrition); 1,3 Diacetyl-2 EPA (from Stepan Lipid Nutrition) and Sn-1(3)-MAG-EPA (purchased from Cognis GmbH, Germany). XENICAL® (ORLISTAT) was given at a level sufficient to decrease lipid absorption by 40%. A group receiving fish oil without XENICAL® (ORLISTAT) was used as a positive control. At different time intervals (D3, D7, […]), the fatty acid profiles of red blood cells and plasma lipids were determined. At the end of the experiment, the fatty acid profiles of different tissues were determined. The main objective was to follow the level of EPA in red blood cells and plasma lipids. The main comparison evaluated was the difference in EPA level between the group receiving EPA glycerides such as EPA-containing sn-1(3) MAG, in combination with XENICAL® (ORLISTAT) and the positive control group […].

[2] = Clinical study comparing sn-1(3) MAG and fish oil (TAG) in delivering EPA under lipid maldigestion induced by XENICAL; assay type: in vivo, humans; settings: for chronic effect: accretion of EPA in erythrocytes as percentage of total fatty acids: compared with fish oil + XENICAL, p=0.0001 (FIG. 6)
Method: This clinical study compared the efficacy of sn-1(3) MAG and fish oil (TAG) in delivering EPA in humans under lipid maldigestion conditions induced by XENICAL® (ORLISTAT). The comparison was tested in volunteers treated with XENICAL® to induce lipid maldigestion or not treated with XENICAL® (ORLISTAT). The primary objective was to assess accretion of EPA in erythrocytes over 21 days when consumed as fish oil (TAG) or sn-1(3) MAG. The secondary objectives were to assess accretion of EPA in plasma over 21 days and also to assess the pharmacokinetics of EPA after an acute dose either in the form of sn-1(3) MAG or TAG (AUC in chylomicrons over 10 hours postprandial). See FIG. 4 that describes the clinical study timeline.

| Structure (SMILES) | effect of XENICAL on EPA incorporation in red blood cells ([1]; fish oil + XENICAL compared with fish oil without XENICAL, day 7) | incorporation of LC-PUFAs in tissue ([1]; conditions of lipid maldigestion or malabsorption (XENICAL), comparison of groups A, B and C) | level of EPA incorporated in red blood cells ([1]; compared with fish oil group without XENICAL) | level of EPA incorporated in red blood cells ([1]; fed 21 days, compared with fish oil + XENICAL, all P values lower than 0.05, listed as sn-1(3) MAG that contained EPA) | level of EPA incorporated in red blood cells ([1]; fed 21 days, compared with fish oil + XENICAL, all P values lower than 0.05, listed as sn-1(3)MAGs) | chronic effect: accretion of EPA in erythrocytes as percentage of total fatty acids ([2]; after 21 days, with XENICAL) | chronic effect: accretion of EPA in erythrocytes as percentage of total fatty acids ([2]; after 21 days, with XENICAL, listed as sn-1(3)MAGs) | chronic effect: accretion of EPA in plasma as percentage of total fatty acids ([2]; after 21 days, with XENICAL, relative to fish oil + XENICAL, p=0.0003 (FIG. 7)) | carrier for EPA (overall conclusion of the clinical trial) ([2]; human subjects treated with XENICAL, compared with fish oil (TAG)) |
| --- | --- | --- | --- | --- | --- | --- | --- | --- | --- |
| CCCCCCCCCCC[C@@H](C[C@@H]1OC(=O)[C@H]1CCCCCC)OC(=O)[C@H](CC(C)C)NC=O [XENICAL, tetrahydrolipstatin, reference compound] | decreases EPA incorporation in red blood cells | – | – | – | – | – | – | – | – |
| CC/C=C\C/C=C\C/C=C\C/C=C\C/C=C\CCCC(=O)OCC(O)CO (stereo not drawn) [sn-1(3) MAG, sn-1(3)-monoeicosapentaenoylglycerol] | – | improved | even higher than the fish oil group | statistically higher | significantly higher | statistically significant | significantly higher | statistically significant | better carrier for EPA than fish oil (TAG) |

— US20180280337A1, “NUTRITIONAL COMPOSITIONS COMPRISING SN-1(3) MONOACYLGLYCEROLS FOR USE IN THE TREATMENT OF GROWTH DELAY IN INFANTS OR CHILDREN” (NESTEC S.A., priority 2014, published 2018)
